Data published in patent publication US4652563A, “Vasodilators and β-adrenoceptor antagonists” (Smith Kline & French Laboratories Ltd., priority 1984, dated 1987).
Structures can show the parent of a compound that is named as a salt. Where two headings read alike, the source gives them in different places. One block for each compound: values may come before it.

Assays:
[1] = Anti-hypertensive activity: fall in blood pressure in anaesthetised rats, intravenous; assay type: in vivo, rat; conditions: from dose response graph; for ED (40 mm Hg): Rattus norvegicus, iv, read-out: dose required to lower blood pressure by 40 mm Hg
Protocol: (§1) Compounds were dosed following dissolution in distilled water or in polyethylene glycol and dilution with 0.9% saline. The compounds were then administered intravenously. The blood pressure and heart rate were monitored directly, from a polythene cannula placed in the carotid artery. The doses required to lower blood pressure by 40 mm Hg, when administered intravenously, were obtained from a dose response graph.

[2] = Vasodilator activity: increase in blood flow in autoperfused anaesthetised rat hindquarters; assay type: in vivo; conditions: for ED (50% increase): Rattus norvegicus, read-out: dose required to increase hindquarters blood flow by 50%
Source text: The doses required to increase hindquarters blood flow by 50% were obtained.

[3] = biological target: T1, β1 -receptors (Felis catus, UniProt Q9TST6); assay: β-Adrenoceptor antagonist activity: inhibition of isoprenaline-induced tachycardia in ganglion blocked anaesthetised cats; assay type: in vivo, cat; conditions: for ED50: cat, iv, read-out: ID50 (inhibition of isoprenaline-induced tachycardia by 50%); for ED50 / ID50 (inhibition of isoprenaline-induced tachycardia by 50%): ganglion blocked anaesthetised cats, intravenous
T1 construct: from tissue; host or cells: living anaesthetised cat (in vivo)
T1 sequence (Q9TST6 whole entry): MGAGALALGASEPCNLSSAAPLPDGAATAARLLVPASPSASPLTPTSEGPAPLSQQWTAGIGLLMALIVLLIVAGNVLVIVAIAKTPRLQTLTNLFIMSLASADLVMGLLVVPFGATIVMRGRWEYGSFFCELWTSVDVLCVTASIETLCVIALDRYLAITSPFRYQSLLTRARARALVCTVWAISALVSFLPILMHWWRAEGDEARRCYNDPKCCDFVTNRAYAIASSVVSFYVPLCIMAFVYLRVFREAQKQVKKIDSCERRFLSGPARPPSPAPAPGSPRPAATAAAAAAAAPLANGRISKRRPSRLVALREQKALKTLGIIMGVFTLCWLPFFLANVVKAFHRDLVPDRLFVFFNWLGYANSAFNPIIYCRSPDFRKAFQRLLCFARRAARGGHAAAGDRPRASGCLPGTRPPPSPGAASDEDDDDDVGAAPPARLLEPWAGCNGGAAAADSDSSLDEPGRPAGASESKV
Source text: (§2) The doses required to inhibit isoprenaline-induced tachycardia by 50% (ID50) were obtained after intravenous administration.

[4] = system: β1 -adrenoceptor; assay: Overall hypotension and β1-adrenoceptor antagonism from the above data; conditions: in vivo
Protocol: as §1, §2
(§3) Furthermore they have minimal intrinsic sympathomimetic activity as shown by the absence of a tachycardia in spontaneously beating guinea pig right atria. The compound of Example 1 produced a maximal increase of approximately 10% of the maximal isoprenaline induced tachycardia in an anaesthetised ganglion blocked cat.

[5] = biological target: T1, β1 -receptors; assay: β-Adrenoceptor antagonist activity: inhibition of isoprenaline-induced tachycardia in ganglion blocked anaesthetised cats; assay type: in vivo, cat; conditions: prizidilol at doses giving a similar effect
[6] = Hypotension and aortic blood flow in anaesthetised cats; assay type: in vivo, cat; conditions: 4 μmol Kg^-1 (base) and 7 μmol Kg^-1 (hydrochloride)
[7] = Anti-hypertensive activity in conscious cats, oral; assay type: in vivo, cat; conditions: 19 μmol Kg^-1 (Example 1 base), 16 μmol Kg^-1 (Example 4 methanesulphonate); for changes in heart rate: at least 2 hours
[8] = Intrinsic sympathomimetic activity (tachycardia) in anaesthetised ganglion blocked cat; assay type: in vivo
Source text: as §3

[9] = Blood pressure in conscious spontaneously hypertensive rats, intravenous and oral; assay type: in vivo, spontaneously hypertensive rat
[10] = system: isolated intact guinea pig trachea; assay: Bronchodilatation: spontaneous tone of isolated intact guinea pig trachea; conditions: bath concentration 1 μg ml^-1
Protocol: The compound of Example 4 (as methanesulphonate) (at a bath concentration of 1 μg ml^-1) caused a 50% reduction in the spontaneous tone of an isolated intact guinea pig trachea, as assessed by the method of Coleman R. A. and Farmer J. B. (1971), J. Pharm.

[11] = Observation of toxic effects in conscious spontaneously hypertensive rats, oral; assay type: in vivo, spontaneously hypertensive rat; conditions: doses up to a maximum of 102 μmol Kg^-1
[12] = iv, administration intravenously
[13] = administration intra-arterially

ED50 [3]: 7.84 µmol/kg
Compound: Cc1cc(CCOCC2CC2)ccc1OCC(O)CNCCC(=O)Nc1ccc(C2=NNC(=O)CC2C)cc1 (centres unmarked) [Example 3, 6-[4-[3-[2-Hydroxy-3-[2-methyl-4-(2-(cyclopropylmethoxy)ethyl)phenoxy]propylamino]propionamido]phenyl]-5-methyl-4,5-dihydro-3(2H)-pyridazinone]
ED (40 mm Hg) [1]: 2.95 µmol/kg
ED (50% increase) [2, 12]: 1.95 µmol/kg

ED50 [3]: 1.6 µmol/kg
Compound: CC1CC(=O)NN=C1c1ccc(NC(=O)CCNC[C@H](O)COc2ccc(CCOCC3CC3)cc2)cc1 (single isomer, unassigned; (-)) [Example 11, (-)-6-[4-[3-[2-(-)-Hydroxy-3-[4-(2-(cyclopropylmethoxy)ethyl)phenoxy]propylamino]propionamido]phenyl]-5-methyl-4,5-dihydro-3(2H)-pyridazione[(-) (-)isomer]]
ED (40 mm Hg) [1]: 2.1 µmol/kg
ED (50% increase) [2, 13]: 1.1 µmol/kg
prolonged hypotension and β1-adrenoceptor antagonism over the same dose range [4]: cause prolonged hypotension and β1 -adrenoceptor antagonism over the same dose range

duration of inhibition of isoprenaline-induced tachycardia [5]: short duration of inhibition
Compound: CC(C)(C)NCC(O)COc1ccccc1-c1ccc(NN)nn1 (centres unmarked) [Prizidilol, reference compound]
ED (40 mm Hg) [1]: 14 µmol/kg
ED (50% increase) [2, 13]: 10 µmol/kg

Further lines, the compound ahead of its results:

Compound: CC1CC(=O)NN=C1c1ccc(NC(=O)CCNCC(O)COc2ccc(CCOCC3CC3)cc2)cc1 (centres unmarked) [Example 1 as hydrochloride, 6-[4-[3-[2-Hydroxy-3-[4-(2-(cyclopropylmethoxy)ethyl)phenoxy]propylamino]propionamido]phenyl]-5-methyl-4,5-dihydro-3(2H)-pyridazinone]
dose required to lower blood pressure by 40 mm Hg ([1]; listed as 1, as hydrochloride): 4.0 µmol/kg
dose required to increase hindquarters blood flow by 50% ([2]; administration intravenously, listed as 1, as hydrochloride): 4.0 µmol/kg
ID50 (inhibition of isoprenaline-induced tachycardia by 50%) ([3]; listed as 1, as hydrochloride): 4.3 µmol/kg
prolonged hypotension and β1-adrenoceptor antagonism over the same dose range [4]: cause prolonged hypotension and β1 -adrenoceptor antagonism over the same dose range

Compound: CC1CC(=O)NN=C1c1ccc(NC(=O)CCNCC(O)COc2ccc(CCOCC3CC3)cc2)cc1 (centres unmarked) [Example 1, 6-[4-[3-[2-Hydroxy-3-[4-(2-(cyclopropylmethoxy)ethyl)phenoxy]propylamino]propionamido]phenyl]-5-methyl-4,5-dihydro-3(2H)-pyridazinone]
dose required to lower blood pressure by 40 mm Hg ([1]; as base): 8.0 µmol/kg
changes in aortic blood flow [6]: minimal changes in aortic blood flow
hypotension [6]: significant dose-dependent hypotension
period of blood pressure reduction with minimal heart rate change [7]: at least 2 hours
reductions in blood pressure [7]: reductions in blood pressure
changes in heart rate [7]: minimal changes in heart rate
dose required to increase hindquarters blood flow by 50% ([2]; administration intravenously, as base): 11.5 µmol/kg
ID50 (inhibition of isoprenaline-induced tachycardia by 50%) ([3]; as base): 1.9 µmol/kg
selectivity for β1-receptors ([3]; in vivo): evidence that this compound has selectivity for β1 -receptors
maximal increase, of the maximal isoprenaline induced tachycardia [8]: approximately 10%
prolonged hypotension and β1-adrenoceptor antagonism over the same dose range [4]: cause prolonged hypotension and β1 -adrenoceptor antagonism over the same dose range
duration of inhibition of isoprenaline-induced tachycardia [5]: prolonged duration of inhibition

Compound: CC1CC(=O)NN=C1c1ccc(NC(=O)CCNCC(O)COc2ccc(CCOCC3CC3)cc2)cc1 (centres unmarked) [Example 4, 6-[4-[3-[2-Hydroxy-3-[4-(2-(cyclopropylmethoxy)ethyl)phenoxy]propylamino]propionamido]phenyl]-5-methyl-4,5-dihydro-3(2H)-pyridazinone]
dose required to lower blood pressure by 40 mm Hg ([1]; as methanesulphonate): 2.8 µmol/kg
period of blood pressure reduction with minimal heart rate change [7]: at least 2 hours
reductions in blood pressure [7]: reductions in blood pressure
changes in heart rate [7]: minimal changes in heart rate
duration of prolonged, significant reductions in blood pressure (up to and including, post dose) ([9]; intravenous, 3 to 13 μmol Kg^-1): 5 h
fall in blood pressure ([9]; intravenous, three dose levels from 3 to 13 μmol Kg^-1): significant fails in blood pressure
duration of prolonged, significant reductions in blood pressure (up to and including, post dose) ([9]; oral, 25 to 102 μmol Kg^-1): 5 h
hypotensive effect ([9]; oral, three doses from 25 to 102 μmol Kg^-1): significant hypotensive effect
ED (50% increase) [2, 13]: 1.7 µmol/kg
duration of vasodilatation ([2]; autoperfused anaesthetised rat hindquarters): prolonged duration of vasodilatation
ID50 (inhibition of isoprenaline-induced tachycardia by 50%) ([3]; as methanesulphonate): 1.4 µmol/kg
inhibition of the reduction in tracheal tone by propanolol [10]: not inhibited by propanolol
reduction in spontaneous tone of trachea [10]: 50%
toxic effects [11]: no toxic effects were observed
prolonged hypotension and β1-adrenoceptor antagonism over the same dose range [4]: cause prolonged hypotension and β1 -adrenoceptor antagonism over the same dose range

Compound: CCCc1cc(CCOCC2CC2)ccc1OCC(O)CNCCC(=O)Nc1ccc(C2=NNC(=O)CC2C)cc1 (centres unmarked) [Example 2, 6-[4-[3-[2-Hydroxy-3-[2-n-propyl-4-(2-(cyclopropylmethoxy)ethyl)phenoxy]propylamino]propionamido]phenyl]-5-methyl-4,5-dihydro-3(2H)-pyridazinone]
ED (40 mm Hg) [1]: 3.15 µmol/kg
ED (50% increase) [2, 12]: 1.43 µmol/kg
ED50 [3]: 8.63 µmol/kg
